{"source": "patent US11696928B2", "about": "“Compounds and use thereof in the expansion of stem cells and/or progenitor cells” (UNIVERSITE DE MONTREAL, priority 2017, dated 2023)", "key": {"[1]": {"test_system": "Human CD34+ cord blood (CB) cells", "test": "CD34+ activity assessment (7-day expansion of pre-expanded CD34+ cells, flow cytometry)", "type": "cell-based", "details": "concentration at which compound/vehicle ratio of CD34+ cell number is >= 1.5; 7 days, with 35 nM UM0128171; Table 1"}, "[2]": {"test_system": "Human CD34+ cord blood (CB) cells", "test": "Assessment of cell composition in vitro (7-day culture of CB CD34+ cells)", "details": "for expansion of CD34+CD45RA+ cells: alone or in combination with UM171, 7 days, FIGS. 1B, 1C and 1D; for overall percentage of CD34+ cells in cultures: combined use with UM171, 7 days, FIG. 1A right panel and FIG. 1D; for percentage of Dendritic Cells and Mast Cells: combined use with UM171, compared to Compounds used alone, FIG. 1D"}, "[3]": {"molecular_target": "T1, AhR (Homo sapiens, UniProt P35869)", "T1 construct": "One of the resultant clones was named HEK-XRE 11.1, and used in the reporter gene assays; endogenous in cells; host or cells: HEK-XRE 11.1 (HEK cells stably carrying the AhR-responsive luciferase reporter X4-4.27 and phRL-CMV)", "T1 sequence (P35869 11-848)": "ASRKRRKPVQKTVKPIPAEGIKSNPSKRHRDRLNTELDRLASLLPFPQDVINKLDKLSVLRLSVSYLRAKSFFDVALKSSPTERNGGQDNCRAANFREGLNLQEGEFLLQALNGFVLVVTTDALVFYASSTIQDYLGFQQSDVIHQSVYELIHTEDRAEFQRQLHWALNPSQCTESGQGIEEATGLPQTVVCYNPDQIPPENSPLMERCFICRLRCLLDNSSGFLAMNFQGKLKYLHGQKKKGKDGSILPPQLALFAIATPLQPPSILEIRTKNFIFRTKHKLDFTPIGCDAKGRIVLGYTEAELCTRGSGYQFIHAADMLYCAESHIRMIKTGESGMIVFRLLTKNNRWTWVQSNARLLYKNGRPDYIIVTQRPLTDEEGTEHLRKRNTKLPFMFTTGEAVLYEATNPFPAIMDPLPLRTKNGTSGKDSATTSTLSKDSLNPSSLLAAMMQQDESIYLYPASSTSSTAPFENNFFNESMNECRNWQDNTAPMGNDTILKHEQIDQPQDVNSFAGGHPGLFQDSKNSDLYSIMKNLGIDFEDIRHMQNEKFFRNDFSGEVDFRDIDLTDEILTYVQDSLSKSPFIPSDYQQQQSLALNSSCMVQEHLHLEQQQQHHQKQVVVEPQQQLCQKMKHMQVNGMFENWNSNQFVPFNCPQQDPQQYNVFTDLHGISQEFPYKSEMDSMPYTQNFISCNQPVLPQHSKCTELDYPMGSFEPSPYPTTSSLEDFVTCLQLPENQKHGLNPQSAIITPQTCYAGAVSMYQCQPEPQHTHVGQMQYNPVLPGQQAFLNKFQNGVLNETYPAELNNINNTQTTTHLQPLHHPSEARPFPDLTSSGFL", "test": "Inhibition of AhR-mediated gene transcription (HEK-XRE 11.1 luciferase reporter, MeBIO induction)", "type": "cell-based", "details": "HEK-XRE 11.1 cells, MeBIO 0.1 nM, luminescence after 24 hours; Table 1", "in_short": "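HEK-XRE 11.1 cells, stably carrying an AhR-responsive firefly luciferase reporter, were stimulated with 0.1 nM MeBIO and given compounds in 8-point 1:3 serial dilutions from 10 mM (stock-range figure) in duplicate. Luminescence was read after 24 h culture without Renilla normalisation. Dose-response curves were fitted by nonlinear regression.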"}, "[4]": {"test_system": "Human CD34+ cord blood (CB) cells", "test": "Assessment of engraftment and myeloid vs lymphoid lineage contribution in vivo", "parameters": "species or system NSG mice"}}, "data": [{"smiles": "COc1ccc(NC(=O)c2sc3ncc(C)cc3c2N)cc1", "note": "[Compound 1114]", "values": [{"measurement": "EC1.5", "setting": "[1]", "result": "<100", "unit": "nM"}, {"measurement": "expansion of CD34+CD45RA+ cells", "setting": "[2]", "result": "favors the expansion of CD34+CD45RA+ cells"}, {"measurement": "overall percentage of CD34+ cells in cultures", "setting": "[2]", "result": "increased the overall percentage of CD34+ cells"}, {"measurement": "percentage of Dendritic Cells and Mast Cells", "setting": "[2]", "result": "increased the percentage of Dendritic Cells and Mast Cells"}, {"measurement": "IC50", "setting": "[3]", "result": "< 50", "unit": "nM"}]}, {"smiles": "Nc1c(C(=O)Nc2ccccc2)sc2nc3c(cc12)CCC3", "note": "[Compound 1001]", "values": [{"measurement": "engraftment of expanded CB cells in the long term (12 and 20 weeks post transplantation)", "setting": "[4]; CB cells expanded 7 days, alone or in combination with UM171, NSG mice bone marrow, FIG. 2A", "result": "engrafted with higher efficiency in the long term"}, {"measurement": "contribution of lymphoid lineage", "setting": "[4]; engrafted human CB cells in NSG mice, FIG. 2B", "result": "greatly increased"}, {"measurement": "EC1.5", "setting": "[1]", "result": "<100", "unit": "nM"}, {"measurement": "number of CD34+ cells in CB cultures", "setting": "[2]; 7 days culture, compared to other conditions, FIG. 1A middle", "result": "increases the number of CD34+ cells"}, {"measurement": "expansion of CD34+CD45RA+ cells", "setting": "[2]", "result": "favors the expansion of CD34+CD45RA+ cells"}, {"measurement": "overall percentage of CD34+ cells in cultures", "setting": "[2]", "result": "increased the overall percentage of CD34+ cells"}, {"measurement": "percentage of Dendritic Cells and Mast Cells", "setting": "[2]", "result": "increased the percentage of Dendritic Cells and Mast Cells"}, {"measurement": "IC50", "setting": "[3]", "result": "< 50", "unit": "nM"}]}, {"smiles": "Cc1cnc2sc(C(=O)Nc3ccncc3)c(N)c2c1", "note": "[Compound 1063]", "values": [{"measurement": "EC1.5", "setting": "[1]", "result": ">5000", "unit": "nM"}, {"measurement": "IC50", "setting": "[3]", "result": "50 to 500", "unit": "nM"}]}, {"smiles": "Nc1c(C(=O)Nc2ccc(F)cc2)sc2ccc(C(F)(F)F)nc12", "note": "[Compound 1117]", "values": [{"measurement": "EC1.5", "setting": "[1]", "result": "100 to 1000", "unit": "nM"}, {"measurement": "IC50", "setting": "[3]", "result": "< 50", "unit": "nM"}]}, {"smiles": "Nc1c(C(=O)Nc2ccncc2)sc2ccc(C(F)(F)F)cc12", "note": "[Compound 1035]", "values": [{"measurement": "EC1.5", "setting": "[1]", "result": "100 to 1000", "unit": "nM"}, {"measurement": "IC50", "setting": "[3]", "result": "< 50", "unit": "nM"}]}, {"smiles": "Cc1ccc(NC(=O)c2sc3ccc(C)cc3c2N)cc1", "note": "[Compound 1131]", "values": [{"measurement": "EC1.5", "setting": "[1]", "result": ">5000", "unit": "nM"}, {"measurement": "IC50", "setting": "[3]", "result": "50 to 500", "unit": "nM"}]}, {"smiles": "Nc1c(C(=O)Nc2cccc(F)c2)sc2ncc(C(F)(F)F)cc12", "note": "[Compound 1077]", "values": [{"measurement": "EC1.5", "setting": "[1]", "result": "100 to 1000", "unit": "nM"}, {"measurement": "IC50", "setting": "[3]", "result": "< 50", "unit": "nM"}]}, {"smiles": "Nc1c(C(=O)Nc2ccsc2)sc2ncc(C(F)(F)F)cc12", "note": "[Compound 1100]", "values": [{"measurement": "EC1.5", "setting": "[1]", "result": "<100", "unit": "nM"}, {"measurement": "IC50", "setting": "[3]", "result": "< 50", "unit": "nM"}]}, {"smiles": "Nc1c(C(=O)Nc2ccc(F)c(Cl)c2)sc2ncc(C(F)(F)F)cc12", "note": "[Compound 1074]", "values": [{"measurement": "EC1.5", "setting": "[1]", "result": "100 to 1000", "unit": "nM"}, {"measurement": "IC50", "setting": "[3]", "result": "< 50", "unit": "nM"}]}, {"smiles": "COc1ccc(NC(=O)c2sc3ncc(C(F)(F)F)cc3c2N)cc1", "note": "[Compound 1048]", "values": [{"measurement": "EC1.5", "setting": "[1]", "result": "<100", "unit": "nM"}, {"measurement": "IC50", "setting": "[3]", "result": "< 50", "unit": "nM"}]}, {"smiles": "Cc1ccc2sc(C(=O)Nc3ccc(OC(F)(F)F)cc3)c(N)c2c1", "note": "[Compound 1151]", "values": [{"measurement": "EC1.5", "setting": "[1]", "result": ">5000", "unit": "nM"}, {"measurement": "IC50", "setting": "[3]", "result": "50 to 500", "unit": "nM"}]}, {"smiles": "COc1ccc(NC(=O)c2sc3ccc(C)nc3c2N)cc1", "note": "[Compound 1129]", "values": [{"measurement": "EC1.5", "setting": "[1]", "result": "100 to 1000", "unit": "nM"}, {"measurement": "IC50", "setting": "[3]", "result": "50 to 500", "unit": "nM"}]}, {"smiles": "Nc1c(C(=O)Nc2ccc(Oc3ccccc3)cc2)sc2ncc(C(F)(F)F)cc12", "note": "[Compound 1092]", "values": [{"measurement": "EC1.5", "setting": "[1]", "result": "100 to 1000", "unit": "nM"}, {"measurement": "IC50", "setting": "[3]", "result": "50 to 500", "unit": "nM"}]}, {"smiles": "Nc1c(C(=O)Nc2cccc(Cl)c2)sc2ncc(C(F)(F)F)cc12", "note": "[Compound 1093]", "values": [{"measurement": "EC1.5", "setting": "[1]", "result": "<100", "unit": "nM"}, {"measurement": "IC50", "setting": "[3]", "result": "< 50", "unit": "nM"}]}]}
